Measurements as given in US20250170106A1, “USE OF SU3327 IN PREPARATION OF MEDICAMENT FOR ENHANCING EFFICACY OF POLYMYXIN AGAINST BACTERIAL INFECTION” (XIAMEN HANLIXIN PHARMACEUTICAL CO., LTD., priority 2022, published 2025).

Assays:
[1] = system: K. pneumoniae 1202-45-5; assay: In vitro bacterial growth (bactericidal) curve; type: cell-based, Klebsiella pneumoniae; conditions: continuous treatment for 24 h, Polymyxin E 1 μg/mL, SU3327 20 μg/mL, alone or combined
Protocol: (§1) 6.0 g powdered beef extract, 1.5 g soluble starch, 17.5 g acid hydrolysate of casein, and 17.0 g agar were weighed, to which 900 mL distilled water was added, with the pH adjusted to 7.3, and the volume to 1000 mL. The mixture was subject to autoclave at 121° C. for 15 minutes, and then cooled to 50° C., poured into a sterile plate, and dried for later use.
(§2) Following culturing of K. pneumoniae 1202 and K. pneumoniae 1202-45-5 in BHI broth for 6-8 hours, the bacteria were diluted to a concentration of 10^6 colony count using a turbidimeter.
(§3) For K. pneumoniae 1202, drug treatment concentrations were set as follows: Polymyxin E (0.25 μg/mL), SU3327 (10 μg/mL), SU3327 (10 μg/mL)+Polymyxin E (0.25 μg/mL); the bacteria in control group were treated with a solvent, 0.1% DMSO. For K. pneumoniae 1202-45-5, drug treatment concentrations were set as follows: Polymyxin E (1 μg/mL), SU3327 (20 μg/mL), SU3327 (20 μg/mL)+Polymyxin E (1 μg/mL). 100 μL of a bacterial solution was applied on an agar plate at 1 h, 3 h, 6 h, 12 h and 24 h post drug treatment, respectively, and cultured for at least 16 h for a colony count.

[2] = system: K. pneumoniae 1202; assay: In vitro bacterial growth (bactericidal) curve; type: cell-based, Klebsiella pneumoniae; conditions: continuous treatment for 24 h, Polymyxin E 0.25 μg/mL, SU3327 10 μg/mL, alone or combined
Protocol: as §1, §2, §3

[3] = system: Escherichia coli B2 (E. coli B2) containing MCR-1; assay: MIC / checkerboard assay; type: cell-based; conditions: for MIC after use in combination: Polymyxin E + SU3327 in combination, checkerboard; for MIC: drug alone
Excerpt: (§4) The strains used in the tests, the strain Escherichia coli ATCC 25922 (E. coli 25922) and the strain Staphylococcus aureus ATCC 29213 (S. aureus 29213), were purchased from China Veterinary Culture Collection Center. Methicillin Resistant Staphylococcus Aureus USA300 (ATCC BAA-1717) was purchased from American Type Culture Collection. The strains used in the other experiments, the strains Escherichia coli B2 (E. coli B2), Escherichia coli GZP08-8 (E. coli GZP08-8), Klebsiella pneumoniae 1202 (K. pneumoniae 1202), Klebsiella pneumoniae 1202-45-5 (K. pneumoniae 1202-45-5), Salmonella 1-5 (Salmonella 1-5), and Shigella Y (Shigella Y) were all from National Center for Veterinary Drug Safety Evaluation of China Agricultural University, with Escherichia coli B2 (E. coli B2), Escherichia coli GZP08-8 (E. coli GZP08-8), Klebsiella pneumoniae 1202-45-5 (K. pneumoniae 1202-45-5), and Salmonella 1-5 (Salmonella 1-5) as polymyxin resistant strains containing MCR-1. Klebsiella pneumoniae 1202 (K. pneumoniae 1202) and Shigella Y (Shigella Y) were strains clinically sensitive to colistin.
(§5) The MIC of SU3327 administered alone was detected with dilution by factors. Subsequently, tests were performed with SU3327 alone, Polymyxin E (Colistin) alone, and in combination, respectively, in sterile, 96-well microplates according to checkerboard assays for the joint inhibitory activities against the above-mentioned strains, and further Fractional Inhibitory Concentration Index (FICI) was calculated. FICI of SU3327 and Polymyxin E=MIC (Polymyxin E in combination)/MIC (Polymyxin E)+MIC (SU3327 in combination)/MIC (SU3327 alone). If FICI≤0.5, synergy was identified; if 0.5<FICI≤1, an additive effect was identified; and if […], an irrelevant effect was identified.

[4] = system: Klebsiella pneumoniae 1202-45-5 (K. pneumoniae 1202-45-5); assay: MIC / checkerboard assay; type: cell-based; conditions: for MIC after use in combination: Polymyxin E + SU3327 in combination, checkerboard; for MIC: drug alone
Excerpt: as §4, §5

[5] = system: Salmonella 1-5; assay: MIC / checkerboard assay; type: cell-based; conditions: for MIC after use in combination: Polymyxin E + SU3327 in combination, checkerboard
Excerpt: as §4, §5

[6] = system: Escherichia coli strain ATCC 25922 (E. coli 25922); assay: MIC / checkerboard assay; type: cell-based; conditions: for MIC after use in combination: Polymyxin E + SU3327 in combination, checkerboard; for MIC: drug alone
Excerpt: as §4, §5

[7] = system: Klebsiella pneumoniae 1202 (K. pneumoniae 1202); assay: MIC / checkerboard assay; type: cell-based; conditions: for MIC after use in combination: Polymyxin E + SU3327 in combination, checkerboard; for MIC: drug alone
Excerpt: as §4, §5

[8] = system: Shigella Y; assay: MIC / checkerboard assay; type: cell-based; conditions: for MIC after use in combination: Polymyxin E + SU3327 in combination, checkerboard
Excerpt: as §4, §5

[9] = system: Staphylococcus aureus strain ATCC 29213 (S. aureus 29213); assay: MIC / checkerboard assay; type: cell-based; conditions: for MIC after use in combination: Polymyxin E + SU3327 in combination, checkerboard; for MIC: drug alone
Excerpt: as §4, §5

[10] = system: Escherichia coli GZP08-8 (E. coli GZP08-8); assay: MIC / checkerboard assay; type: cell-based; conditions: for MIC after use in combination: Polymyxin E + SU3327 in combination, checkerboard; for MIC: drug alone
Excerpt: as §4, §5

[11] = system: Staphylococcus Aureus USA300 (S. aureus USA300); assay: MIC / checkerboard assay; type: cell-based; conditions: for MIC after use in combination: Polymyxin E + SU3327 in combination, checkerboard; for MIC: drug alone
Excerpt: as §4, §5

[12] = target: p38α (Homo sapiens, UniProt Q16539); conditions: cited from earlier work
Sequence of p38α (Q16539 whole entry): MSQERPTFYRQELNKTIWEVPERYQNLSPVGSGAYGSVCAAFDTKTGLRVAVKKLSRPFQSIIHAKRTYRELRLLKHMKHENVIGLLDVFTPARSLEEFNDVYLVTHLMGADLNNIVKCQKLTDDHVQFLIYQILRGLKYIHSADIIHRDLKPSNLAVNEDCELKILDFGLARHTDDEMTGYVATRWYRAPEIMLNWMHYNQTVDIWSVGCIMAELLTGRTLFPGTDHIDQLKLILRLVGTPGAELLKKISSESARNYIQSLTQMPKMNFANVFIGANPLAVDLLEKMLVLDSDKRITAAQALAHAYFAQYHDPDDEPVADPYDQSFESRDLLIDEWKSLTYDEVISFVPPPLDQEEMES

[13] = system: JNK and JIP; conditions: read-out: IC50 (protein interaction between JNK and JIP); cited from earlier work
[14] = system: Akt; conditions: cited from earlier work
[15] = system: K. pneumoniae 1202-45-5; assay: Thigh infection model of neutropenic BALB/c mice infected with drug resistant bacteria; type: in vivo; conditions: 10 mg/kg body weight each drug, intraperitoneal, 24 hour post infection; for bacteria loading in the thigh of the mice: twice 8 h apart, K. pneumoniae 1202-45-5
Protocol: In order to avoid the influence of mice's own immunity on the experiments, all mice were administered in advance with cyclophosphamide twice, four days and one day before infection, respectively, 100 mg/kg intraperitoneal injection each time, resulting in neutropenia and immune deficiency in the mice. 24 female BALB/c mice (weighing about 20 g) aged 6-8 weeks old were prepared. K. pneumoniae 1202-45-5 in logarithmic phase was re-suspended with a PBS buffer to prepare a suspension at the concentration of 1×10^7 CFU/mL; in the mice, the total amount of bacteria injected into the thigh of each mouse was 1×10^6 CFUs in the end. Then they were randomly divided into model control group (solvent treatment group), Polymyxin E treatment group (10 mg/kg body weight), SU3327 treatment group (10 mg/kg body weight), and combined treatment group of SU3327 (10 mg/kg body weight)+Polymyxin E (10 mg/kg body weight) (6 mice in each group). The treatments are detailed as follows:
(§6) Solvent control treatment group: 0.1 mL of the suspension of K. pneumoniae 1202-45-5 was intramuscularly injected into a mouse in the thigh on the right side of its abdominal cavity; one hour later, the mouse was intraperitoneally injected with 200 μL of a PBS buffer.
as §6, with “Polymyxin E” for “Solvent control”, “solution of drug, Polymyxin E (1 mg/mL); the final dose was 10 mg/kg body weight;” for “PBS buffer.”
as §6, with “SU3327” for “Solvent control”, “solution of drug, SU3327 (1 mg/mL); the final dose was 10 mg/kg body weight; […]” for “PBS buffer.”

[16] = system: JNK; conditions: substrate-competitive JNK inhibitor; cited from earlier work

Molecule	bacterial colony counts [1] [Log 10 CFU/mL]	bacterial colony counts [2] [Log 10 CFU/mL]	MIC after use in combination [3] [µg/mL]	MIC [3] [µg/mL]	MIC after use in combination [4] [µg/mL]	MIC [4] [µg/mL]	MIC after use in combination [5] [µg/mL]	MIC after use in combination [6] [µg/mL]	MIC [6] [µg/mL]	MIC after use in combination [7] [µg/mL]	MIC [7] [µg/mL]	MIC after use in combination [8] [µg/mL]	MIC after use in combination [9] [µg/mL]	MIC [9]	MIC after use in combination [10] [µg/mL]	MIC [10] [µg/mL]	MIC after use in combination [11] [µg/mL]	MIC [11]	bacteria loading in the thigh of the mice [15] [Log 10 CFU/mL]	other results
Nc1nnc(Sc2ncc([N+](=O)[O-])s2)s1 [SU3327]	6.65	8.35	2.5	20	5	20	2.5	5	10	2.5	20	2.5	2.5	5 µg/mL	2.5	10	1.25	5 µg/mL	6.55	MIC ([5]; drug alone): 20 µg/mL; MIC ([8]; drug alone): 5 µg/mL; activity for p38α kinase [12]: low activity; IC50 [13]: 239 nM; activity for Akt kinase [14]: low activity; IC50 [16]: 700 nM
Polymyxin E	9.3	8.9	0.5	8	0.25	16	1	0.0625	0.125	0.0625	1	0.032	64	more than 128 μg/mL	0.25	16	32	more than 128 μg/mL	6.82	bacteria loading in the thigh compared with solvent control group [15]: not significantly different
